Source: ChEMBL document CHEMBL3885881, “DrugMatrix”

Organism: Rattus norvegicus
Experiment: DrugMatrix - Regimen: Daily Repeat
Type: toxicity, organism-based, Sprague-Dawley
Design: regimen Daily Repeat, gender Male, age 6-8 weeks
Conditions: in vivo, po, route oral GAVAGE, vehicle .5 % CMC; for URIC ACID / ALANINE AMINOTRANSFERASE / ALBUMIN / ALKALINE PHOSPHATASE / ASPARTATE AMINOTRANSFERASE / BLOOD UREA NITROGEN / CARBON DIOXIDE / CHLORIDE / CHOLESTEROL / CREATINE PHOSPHOKINASE / CREATININE / GLUCOSE / LACTATE DEHYDROGENASE / LIPASE / PHOSPHORUS / POTASSIUM / SODIUM / TOTAL BILIRUBIN / TOTAL PROTEIN: tissue Plasma; for ABSOLUTE BASOPHIL / ABSOLUTE EOSINOPHIL / ABSOLUTE LYMPHOCYTE / ABSOLUTE MONOCYTE / ABSOLUTE SEGMENTED NEUTROPHIL / BASOPHIL / EOSINOPHIL / ERYTHROCYTE COUNT / HEMATOCRIT / HEMOGLOBIN / LEUKOCYTE COUNT / LYMPHOCYTE / MEAN CORPUSCULAR HEMOGLOBIN / MEAN CORPUSCULAR HEMOGLOBIN CONCENTRATION / MONOCYTE / NEUTROPHIL / NUCLEATED RED BLOOD CELLS / PLATELET COUNT: tissue Blood
[1] = 10 mg/kg, 120 h, dose level Low, time 5 day
[2] = 269 mg/kg, 72 h, dose level High, time 3 day
[3] = 269 mg/kg, 120 h, dose level High, time 5 day

`O=C1C(CC[S+]([O-])c2ccccc2)C(=O)N(c2ccccc2)N1c1ccccc1` (stereo unspecified) [SULFINPYRAZONE] was tested, and the “URIC ACID” value (10 mg/kg, 72 h, dose level Low, time 3 day) was 2 mg/dL, the “ABSOLUTE BASOPHIL” value [1] was 0 CELLS/uL and the “ABSOLUTE EOSINOPHIL” value [1] was 0 CELLS/uL. For the same molecule, the “ABSOLUTE LYMPHOCYTE” value [1] was 8238.33 CELLS/uL, the “ABSOLUTE MONOCYTE” value [1] was 0 CELLS/uL and the “ABSOLUTE SEGMENTED NEUTROPHIL” value [1] was 761.67 CELLS/uL. For the same molecule, the BASOPHIL [1] was 0%, the EOSINOPHIL [1] was 0% and the “ERYTHROCYTE COUNT” value [1] was 5.27 x10E6/uL. The HEMATOCRIT [1] was 33.27%, the HEMOGLOBIN [1] was 13.03 G/DL and the “LEUKOCYTE COUNT” value [1] was 9 x10E3/uL. For the same molecule, the LYMPHOCYTE [1] was 91.67%, the “MEAN CORPUSCULAR HEMOGLOBIN” value [1] was 24.77 pg and the “MEAN CORPUSCULAR HEMOGLOBIN CONCENTRATION” value [1] was 39.17 G/DL. For the same molecule, the MONOCYTE [1] was 0%, the NEUTROPHIL [1] was 8.33% and the “NUCLEATED RED BLOOD CELLS” value [1] was 0 /100WBC. For the same molecule, the “PLATELET COUNT” value [1] was 1182 x10E3/uL, the “ALANINE AMINOTRANSFERASE” value [1] was 51.33 u/L and the ALBUMIN [1] was 4.23 G/DL. For the same molecule, the “ALKALINE PHOSPHATASE” value [1] was 307 u/L, the “ASPARTATE AMINOTRANSFERASE” value [1] was 86.67 u/L and the “BLOOD UREA NITROGEN” value [1] was 15.33 mg/dL. The “CARBON DIOXIDE” value [1] was 30 mmol/L, the CHLORIDE [1] was 102 MEQ/L and the CHOLESTEROL [1] was 63.67 mg/dL. For the same molecule, the “CREATINE PHOSPHOKINASE” value [1] was 204 u/L, the CREATININE [1] was 0.19 mg/dL and the GLUCOSE [1] was 139.33 mg/dL. The “LACTATE DEHYDROGENASE” value [1] was 126 u/L, the LIPASE [1] was 9 u/L and the PHOSPHORUS [1] was 11.67 mg/dL. The POTASSIUM [1] was 6.44 MEQ/L, the SODIUM [1] was 148.53 MEQ/L and the “TOTAL BILIRUBIN” value [1] was 0.27 mg/dL. For the same molecule, the “TOTAL PROTEIN” value [1] was 6.3 G/DL, the “URIC ACID” value [1] was 1 mg/dL and the “ABSOLUTE BASOPHIL” value [2] was 0 CELLS/uL. For the same molecule, the “ABSOLUTE EOSINOPHIL” value [2] was 0 CELLS/uL, the “ABSOLUTE LYMPHOCYTE” value [2] was 15229.67 CELLS/uL and the “ABSOLUTE MONOCYTE” value [2] was 176.67 CELLS/uL. For the same molecule, the “ABSOLUTE SEGMENTED NEUTROPHIL” value [2] was 1627 CELLS/uL, the BASOPHIL [2] was 0% and the EOSINOPHIL [2] was 0%. For the same molecule, the “ERYTHROCYTE COUNT” value [2] was 4.48 x10E6/uL, the HEMATOCRIT [2] was 28.7% and the HEMOGLOBIN [2] was 11.63 G/DL. For the same molecule, the “LEUKOCYTE COUNT” value [2] was 17.03 x10E3/uL, the LYMPHOCYTE [2] was 89.67% and the “MEAN CORPUSCULAR HEMOGLOBIN” value [2] was 26.03 pg. For the same molecule, the “MEAN CORPUSCULAR HEMOGLOBIN CONCENTRATION” value [2] was 40.6 G/DL, the MONOCYTE [2] was 1% and the NEUTROPHIL [2] was 9.33%. The “NUCLEATED RED BLOOD CELLS” value [2] was 0 /100WBC, the “PLATELET COUNT” value [2] was 1194 x10E3/uL and the ALBUMIN [2] was 3.87 G/DL. The “ALKALINE PHOSPHATASE” value [2] was 319.33 u/L, the “ASPARTATE AMINOTRANSFERASE” value [2] was 92.67 u/L and the “BLOOD UREA NITROGEN” value [2] was 16 mg/dL. The “CARBON DIOXIDE” value [2] was 21.33 mmol/L, the CHLORIDE [2] was 105.67 MEQ/L and the CHOLESTEROL [2] was 78.67 mg/dL. For the same molecule, the “CREATINE PHOSPHOKINASE” value [2] was 438 u/L, the CREATININE [2] was 0.18 mg/dL and the GLUCOSE [2] was 147 mg/dL. For the same molecule, the “LACTATE DEHYDROGENASE” value [2] was 291 u/L, the LIPASE [2] was 10.33 u/L and the PHOSPHORUS [2] was 11.97 mg/dL. The POTASSIUM [2] was 6.1 MEQ/L, the SODIUM [2] was 145.03 MEQ/L and the “TOTAL BILIRUBIN” value [2] was 0.23 mg/dL. For the same molecule, the “TOTAL PROTEIN” value [2] was 5.5 G/DL, the “URIC ACID” value [2] was 1.4 mg/dL and the “ABSOLUTE BASOPHIL” value [3] was 0 CELLS/uL. For the same molecule, the “ABSOLUTE EOSINOPHIL” value [3] was 0 CELLS/uL, the “ABSOLUTE LYMPHOCYTE” value [3] was 20046 CELLS/uL and the “ABSOLUTE MONOCYTE” value [3] was 55 CELLS/uL. The “ABSOLUTE SEGMENTED NEUTROPHIL” value [3] was 2899 CELLS/uL, the BASOPHIL [3] was 0% and the EOSINOPHIL [3] was 0%. For the same molecule, the “ERYTHROCYTE COUNT” value [3] was 5.28 x10E6/uL, the HEMATOCRIT [3] was 32.4% and the HEMOGLOBIN [3] was 13.17 G/DL. The “LEUKOCYTE COUNT” value [3] was 23 x10E3/uL, the LYMPHOCYTE [3] was 87.33% and the “MEAN CORPUSCULAR HEMOGLOBIN” value [3] was 24.9 pg. For the same molecule, the “MEAN CORPUSCULAR HEMOGLOBIN CONCENTRATION” value [3] was 40.63 G/DL, the MONOCYTE [3] was 0.33% and the NEUTROPHIL [3] was 12.33%. For the same molecule, the “NUCLEATED RED BLOOD CELLS” value [3] was 0 /100WBC, the “PLATELET COUNT” value [3] was 1314.67 x10E3/uL and the “ALANINE AMINOTRANSFERASE” value [3] was 59.33 u/L. For the same molecule, the ALBUMIN [3] was 4.13 G/DL, the “ALKALINE PHOSPHATASE” value [3] was 291.33 u/L and the “ASPARTATE AMINOTRANSFERASE” value [3] was 70.33 u/L. The “BLOOD UREA NITROGEN” value [3] was 15 mg/dL, the “CARBON DIOXIDE” value [3] was 26.67 mmol/L and the CHLORIDE [3] was 102.33 MEQ/L. The CHOLESTEROL [3] was 77 mg/dL, the “CREATINE PHOSPHOKINASE” value [3] was 224.33 u/L and the CREATININE [3] was 0.25 mg/dL. For the same molecule, the GLUCOSE [3] was 143.67 mg/dL, the “LACTATE DEHYDROGENASE” value [3] was 78.33 u/L and the LIPASE [3] was 9 u/L. For the same molecule, the PHOSPHORUS [3] was 12.43 mg/dL, the POTASSIUM [3] was 6.73 MEQ/L and the SODIUM [3] was 147 MEQ/L. For the same molecule, the “TOTAL BILIRUBIN” value [3] was 0.23 mg/dL, the “TOTAL PROTEIN” value [3] was 6 G/DL and the “URIC ACID” value [3] was 1.53 mg/dL.
